Drawing on publication PMC12547752, “Silodosin as a Novel Inhibitor of Acetylcholinesterase, Butyrylcholinesterase, and BETA-Secretase 1: In Vitro and In Silico Studies” (ACS Omega, 2025), this text covers IC50 for one molecule.

SMILES strings stand for the structures.

The target in this assay is T1, butyrylcholinesterase (BuChE) (Equus caballus, UniProt P81908).
T1 construct: gene BCHE
The experiment in a line: Ellman colorimetric assay with equine serum BuChE, concentration-response. It counts as biochemical.

T1 sequence (P81908 whole entry): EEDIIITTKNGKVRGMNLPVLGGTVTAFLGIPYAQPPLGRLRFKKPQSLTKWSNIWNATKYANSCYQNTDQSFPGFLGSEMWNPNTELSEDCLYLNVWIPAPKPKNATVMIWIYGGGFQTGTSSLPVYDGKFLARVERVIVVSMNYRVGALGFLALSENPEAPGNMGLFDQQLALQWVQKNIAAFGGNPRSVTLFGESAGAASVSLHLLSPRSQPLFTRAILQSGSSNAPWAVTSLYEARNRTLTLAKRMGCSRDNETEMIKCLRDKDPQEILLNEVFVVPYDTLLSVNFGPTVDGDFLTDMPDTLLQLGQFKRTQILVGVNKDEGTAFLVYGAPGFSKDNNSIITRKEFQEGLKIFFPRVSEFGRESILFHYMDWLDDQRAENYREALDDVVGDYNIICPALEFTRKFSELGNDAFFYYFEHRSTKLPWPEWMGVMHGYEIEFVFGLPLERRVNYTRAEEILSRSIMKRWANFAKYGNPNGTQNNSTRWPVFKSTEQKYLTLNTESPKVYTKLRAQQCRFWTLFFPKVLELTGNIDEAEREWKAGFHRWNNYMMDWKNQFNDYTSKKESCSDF

A word on the IC50: it is the point on the concentration scale where inhibition reaches its midpoint. Read a low IC50 as greater potency. `C[C@H](Cc1cc2c(c(C(N)=O)c1)N(CCCO)CC2)NCCOc1ccccc1OCC(F)(F)F` [silodosin] returned an IC50 of 3.02 ± 0.05 µM.
